Test results taken from article PMC6182421, “De novo coiled-coil peptides as scaffolds for disrupting protein–protein interactions” (Chemical Science, 2018).

Columns and labels:
hDM2/Flu-p53 = assay type: binding; conditions: read-out: IC50, inhibition of Flu-p53/hDM2 (positive control)
[1] = Circular dichroism spectroscopy and thermal denaturation; assay type: physicochemical; conditions: for TM (midpoint of thermal denaturation): MRE222 monitored 5 to 90 °C at 40 °C h^–1, PBS pH 7.4, 50 μM of each peptide; for % helicity: from MRE222, 20 °C, calculation per ref 68
Description: (A & B) CC-Di (pale green), CC-Di_S (lime), CC-Di_E1 (green), CC-Di_E2 (olive). (C & D) CC-Di-A (pink), CC-Di-B (cyan), CC-Di-A : CC-Di-B mixture (purple). (E & F) CC-Di-A_S (red), CC-Di-B (cyan), CC-Di-A_S : CC-Di-B mixture (brown). (G & H) CC-Di-A (pink), CC-Di-B_S (blue), CC-Di-A : CC-Di-B_S mixture (indigo). For heteromeric assemblies (i.e. Panels C–H) the theoretical spectra expected should the pairs of peptides not interact are depicted by grey dashes. Conditions: all experiments were performed in phosphate-buffered saline (PBS; pH 7.4) at 50 μM concentration of each peptide. Equilibrium CD spectra were recorded at 20 °C.
CD spectra were collected using a JASCO J810 spectropolarimeter coupled to a Peltier temperature controller. Peptide-containing solutions were freshly prepared in PBS (pH 7.4) with concentrations calculated from UV absorption at 280 nm (ε(Tyr) = […]).[78] Samples were examined at 50 μM concentration for lone peptides and 50 + 50 μM for two peptide heterodimeric examples, in a 1 mm quartz cuvette. […] Thermal denaturation experiments were conducted by ramping temperature from 5 to 90 °C at 40 °C h^–1. Full spectra (260–190 nm, 5 scans) were recorded at 5 °C and 20 °C, while the CD signal at 222 nm was recorded across the full temperature range at 1 °C intervals (1 nm interval, 1 nm bandwidth, 16 s response time).

MCL-1/FITC-BID = molecular target: T1, MCL-1/FITC-BID (Homo sapiens, UniProt Q07820); test: Fluorescence anisotropy competition assay, MCL-1/FITC-BID; assay type: binding; conditions: for Displacement of FITC-BID from MCL-1 (in words) / IC50 MCL-1/BID: 150 nM MCL-1, 25 nM FITC-BID; for IC50 MCL-1/BID: Table 2, 21 °C, Tris buffer pH 7.4 + 0.01% Triton-X-100, 20-21 h incubation, triplicate
T1 construct: made in house
T1 sequence (Q07820 173-327 limits assumed): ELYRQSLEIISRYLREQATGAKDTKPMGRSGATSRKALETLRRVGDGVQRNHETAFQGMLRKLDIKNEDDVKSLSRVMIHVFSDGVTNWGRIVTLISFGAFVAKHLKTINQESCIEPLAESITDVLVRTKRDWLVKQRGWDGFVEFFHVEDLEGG

[2] = Sedimentation-equilibrium analytical ultracentrifugation; assay type: physicochemical; conditions: AUC, relative to monomer molecular mass, 20 °C, PBS, 50 μM of each peptide
Description: Sedimentation equilibrium experiments were prepared in PBS (137 mM NaCl, 2.7 mM KCl, 8.2 mM Na2HPO4 and 1.8 mM KH2PO4) at 50 μM peptide concentration for homomeric assemblies and 50 μM peptide concentration of both peptides for heteromeric assemblies and to 120 μL. The reference channel was loaded with 130 μL of PBS solution. Equilibrium distributions were measured twice per speed, in 4 krpm increments, and with rotor speeds from 40 to 60 krpm. Data were fitted to single ideal species models using Ultrascan II (; http://www.ultrascan.uthscsa.edu). […] 95% confidence limits were obtained by Monte Carlo analysis of the fits. The partial specific volume for each of the peptides and the buffer density were calculated using Ultrascan II.
Beckman Proteomelab XL -I analytical ultracentrifuge u sing an An -60 Ti rotor and 2-channel centrepiec es.
Sedimentation equilibrium experiments were made up in PBS (137 mM NaCl, 2.7 mM KCl, 8.2 mM
Na2HP O4 and 1.8 mM KH2PO4) at 50 µM peptide concentration for homomeric assemblies and 50 µM
peptide concentration of both peptides for heteromeric assemblies and to 120 µL. The referenc e channel
was loaded with 130 µL of PBS solution. Equilibrium distributions were measured twice per speed, in 4
krpm increments, and with rotor speeds from 40 to 60 krpm. Data were fitted to single ideal species models […]
were calculated using Ultrascan II.

BCL-xL/FITC-BID = molecular target: T2, BCL-xL/FITC-BID (Homo sapiens, UniProt Q07817, DEL27-82); test: Fluorescence anisotropy competition assay, BCL-xL/FITC-BID; assay type: binding; conditions: competition titration, 20-21 h incubation
T2 construct: made in house
T2 sequence (Q07817 with tags, fused parts or gaps DEL27-82 limits assumed, species assumed): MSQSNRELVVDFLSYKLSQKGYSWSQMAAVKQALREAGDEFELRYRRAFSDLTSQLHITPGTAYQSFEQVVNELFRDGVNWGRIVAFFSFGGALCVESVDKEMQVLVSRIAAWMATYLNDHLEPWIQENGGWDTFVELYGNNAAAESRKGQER

[3] = PBS pH 7.4, 50 μM of each peptide

Compound | TM (midpoint of thermal denaturation) [1] | % helicity [1, 3] | Displacement of FITC-BID from MCL-1 (in words) (MCL-1/FITC-BID) | IC50 MCL-1/BID (MCL-1/FITC-BID) | other results
COc1ccc(C2=N[C@@H](c3ccc(Cl)cc3)[C@@H](c3ccc(Cl)cc3)N2C(=O)N2CCNC(=O)C2)c(OC(C)C)c1 [Nutlin-3a] |  |  |  |  | IC50 (hDM2/Flu-p53): 0.273 ± 0.041 µM
Ac-G EIAALEQ EIAALEK ENAALEQ EIAALEQ GYG-NH [CC-Di-A, acidic peptide of the obligate heterodimer CC-Di-AB] | NA (<0) °C | 19% | does not bind MCL-1 | No response | MRE222 ([1]; CD at 222 nm, 20 °C, PBS pH 7.4, 50 μM of each peptide): –6577 deg cm^2 dmol res^–1
Ac-G EIAALKQ EIAALKK ENAALKQ EIAALKQ GYG-NH [CC-Di, de novo designed homodimeric coiled-coil peptide, unmodified scaffold] | 75 °C | 90% | did not displace FITC-BID | No response | Oligomer state [2]: 1.96
Ac-G KIAALKQ KIAALKK KNAALKQ KIAALKQ GYG-NH [CC-Di-B, basic peptide of the obligate heterodimer CC-Di-AB] | 38 °C | 71% | neither of the free peptides, CC-Di-B or CC-Di-B_S, competed with FITC-BID | No response | 
Ac-G KIAALKQ KILRLIG DNVALKQ KIAALKQ GYG-NH [CC-Di-B_S, basic peptide with the short motif graft that should partner peptide CC-Di-A] | 27 °C | 46% | neither of the free peptides, CC-Di-B or CC-Di-B_S, competed with FITC-BID | No response | 
Ac-GEIAALKQEILRLIGDNVALKQEIAALKQGYG-NH2 [CC-Di_S] |  |  |  |  | Inhibition of BCL-xL/FITC-BID (in words) (BCL-xL/FITC-BID): inconclusive
Ac-GEILALKQEILRLIGDNVALKQEILNLKQGYG-NH2 [CC-Di_E1] |  |  |  |  | IC50 (MCL-1/FITC-BID): 0.7 ± 0.05 µM
